Measurements: patent publication US20240277754A1, “IMMUNO-ONCOLOGY THERAPEUTIC COMPOSITION USING ADJUVANT INCLUDING LIPOPEPTIDES AND POLY (I:C)” (CHA VACCINE RESEARCH INSTITUTE CO., LTD, priority 2021, published 2024)

Tested on: MC38 mouse colon cancer cells
Assay: Tumor suppressive efficacy in combination with other TLR ligands or saponin, colon cancer mouse model
Type: in vivo, C57BL/6 mice
Conditions: L-pampo 45 μg/dose, QS21 10 μg/dose, Imiquimod 10 μg/dose, intratumoral four times at 3-day intervals, D20, 12 days after start
Experimental: Tumors were generated in mice by subcutaneous injection of 1×10^5 MC38 mouse colon cancer cells into the right flank of 8-week-old female C57BL/6 mice (OrientBio, Korea). The immuno-oncology drug L-pampo was prepared by mixing 25 μg of Pam3CSK4 and 20 μg of poly(I:C). […] This was administered into the tumor four times at 3-day intervals. Tumor sizes for all experimental groups were measured every three days. The long and short axes of the tumor were measured, and the size of the tumor was calculated as [½×size of the long axis×(size of the short axis)^2]. The tumor suppressive efficacy was analyzed based on the calculated tumor size.

Compound	size of the tumor reduced compared to negative control (buffer)
QS-21	about 57%
CC(C)Cn1cnc2c(N)nc3ccccc3c21 [imiquimod]	about 39%
